US9790228B2, “Heterocyclic kinase inhibitors” (Intellikine LLC, priority 2008, dated 2017)
Values belong to the molecule of their own block, whether it stands above or below them.

Columns and labels:
[1] = PBS pH 7.4, 24 hours, 37° C.; cited from earlier work
PI3K/Akt/mTor signaling = assay: Kinase signaling in blood (phosflow); assay type: cell-based; settings: anti-CD3 stimulated splenocytes or PBMC
Method: PI3K/Akt/mTor signaling is measured in blood cells using the phosflow method (Methods Enzymol. 2007; 434:131-54). The advantage of this method is that it is by nature a single cell assay so that cellular heterogeneity can be detected rather than population averages. This allows concurrent distinction of signaling states in different populations defined by other markers. Phosflow is also highly quantitative. To test the effects of one or more compounds disclosed herein, unfractionated splenocytes, or peripheral blood mononuclear cells are stimulated with anti-CD3 to initiate T-cell receptor signaling. The cells are then fixed and stained for surface markers and intracellular phosphoproteins.
Similarly, aliquots of whole blood are incubated for 15 minutes with vehicle (e.g. 0.1% DMSO) or kinase inhibitors at various concentrations, before addition of stimuli to crosslink the T cell receptor (TCR) (anti-CD3 with secondary antibody) or the B cell receptor (BCR) using anti-kappa light chain antibody (Fab′2 fragments). After approximately 5 and 15 minutes, samples are fixed (e.g. with cold 4% paraformaldehyde) and used for phosflow. […] The level of phosphrylation of kinase substrates such as Akt and S6 are then measured by incubating the fixed cells with labeled antibodies specific to the phosphorylated isoforms of these proteins. The population of cells are then analyzed by flow cytometry.

[2] = control compound, 5 μM; cited from earlier work
lupus disease model mice = settings: B6.Slelz.Sle3z model; cited from earlier work

Compound: O=C(O)CCCc1ccc(N(CCCl)CCCl)cc1 [chlorambucil]
chemical stability [1]: largely hydrolyzed

Akt phosphorylation (PI3K/Akt/mTor signaling): enhances Akt phosphorylation
S6 phosphorylation (PI3K/Akt/mTor signaling): inhibits S6 phosphorylation
Compound: CO[C@H]1C[C@@H]2CC[C@@H](C)[C@@](O)(O2)C(=O)C(=O)N2CCCC[C@H]2C(=O)O[C@H]([C@H](C)C[C@@H]2CC[C@@H](O)[C@H](OC)C2)CC(=O)[C@H](C)/C=C(\C)[C@@H](O)[C@@H](OC)C(=O)[C@H](C)C[C@H](C)/C=C/C=C/C=C/1C [rapamycin]

Compound: CC(C)[N+](C)(CCOC(=O)C1c2ccccc2Oc2ccccc21)C(C)C [propantheline]
plasma stability [2]: intermediate

Compound: CCCOc1cc(N)ccc1C(=O)OCCN(CC)CC [propoxycaine]
plasma stability [2]: low

Compound: CO[C@H]1C[C@@H]2CC[C@@H](C)[C@@](O)(O2)C(=O)C(=O)N2CCCC[C@H]2C(=O)O[C@H]([C@H](C)C[C@@H]2CC[C@@H](OCCO)[C@H](OC)C2)CC(=O)[C@H](C)/C=C(\C)[C@@H](O)[C@@H](OC)C(=O)[C@H](C)C[C@H](C)/C=C/C=C/C=C/1C [RAD001]
lupus symptoms (lupus disease model mice): ameliorate lupus symptoms
